Reference: the NIST ThermoML archive (doi:10.1021/je900697w)

Columns and labels:
[1] = for surface tension liquid-gas: Ring tensiometer; for mass density: 101.33 kPa, Liquid
[2] = 101 kPa, Liquid mixture 1, Ring tensiometer
[3] = xn = mol fraction of the nth substance listed; details: for surface tension liquid-gas: Ring tensiometer; for mass density: 101 kPa, Liquid, Vibrating tube method

CCCCCC[n+]1ccn(C)c1.O=S(=O)([N-]S(=O)(=O)C(F)(F)F)C(F)(F)F
[1]
Details | mass density [kg/m3] | surface tension liquid-gas [mN/m]
283.1 K | 1385.4 | 31.2
298.15 K | 1370.7 | 30.8
323.15 K | 1348 | 28.9
348.15 K | 1324 | 27.6

C=CCCCCCC [oct-1-ene] + CCCCCC[n+]1ccn(C)c1.O=S(=O)([N-]S(=O)(=O)C(F)(F)F)C(F)(F)F
[2]
Details | interfacial tension [mN/m]
283.1 K | 13.3
298.15 K | 13
323.15 K | 9.7
348.15 K | 4.4

[3]
Details | mass density [kg/m3] | surface tension liquid-gas [mN/m]
283.1 K, x1 = 0.05 | 1372.1 | 30.9
283.1 K, x1 = 0.1 | 1356 | 29.8
283.1 K, x1 = 0.139 | 1340 | –
283.1 K, x1 = 0.15 | – | 27.8
283.1 K, x1 = 0.154 | 1340 | –
283.1 K, x1 = 0.16 | – | 27.7
283.1 K, x1 = 1 | – | 22.5
298.15 K, x1 = 0.05 | 1358 | 30.3
298.15 K, x1 = 0.1 | 1342 | 29.4
298.15 K, x1 = 0.139 | 1328 | –
298.15 K, x1 = 0.15 | – | 27.4
298.15 K, x1 = 0.154 | 1326 | –
298.15 K, x1 = 0.19 | – | 27
298.15 K, x1 = 1 | – | 21.2
323.15 K, x1 = 0.05 | 1336 | 28.8
323.15 K, x1 = 0.1 | 1319 | 28.7
323.15 K, x1 = 0.139 | 1306 | –
323.15 K, x1 = 0.15 | – | 26.6
323.15 K, x1 = 0.154 | 1303 | –
323.15 K, x1 = 0.23 | – | 25.5
323.15 K, x1 = 1 | – | 18.5
348.15 K, x1 = 0.05 | 1313 | 27.4
348.15 K, x1 = 0.1 | 1300 | 27.2
348.15 K, x1 = 0.139 | 1282 | –
348.15 K, x1 = 0.15 | – | 26.3
348.15 K, x1 = 0.154 | 1279 | –
348.15 K, x1 = 0.28 | – | 25.3
348.15 K, x1 = 1 | – | 15.7

C=CCCCCCC [oct-1-ene]
[1]
Details | surface tension liquid-gas [mN/m]
283.1 K | 22.5
298.15 K | 21.2
323.15 K | 18.5
348.15 K | 15.7

[1], Vibrating tube method
Details | mass density [kg/m3]
283.1 K | 723.5
298.15 K | 711.2
323.15 K | 690
348.15 K | 668

CCCCCC[n+]1ccn(C)c1.O=S(=O)([N-]S(=O)(=O)C(F)(F)F)C(F)(F)F + C=CCCCCCC
[3], x2 = 0
Details | mass density [kg/m3] | surface tension liquid-gas [mN/m]
283.1 K | 1385.4 | 31.2
298.15 K | 1370.7 | 30.8
323.15 K | 1348 | 28.9
348.15 K | 1324 | 27.6
